Measured values published in patent US9005646B2, “Compositions for repair of defects in tissues, and methods of making the same” (LifeNet Health, priority 2005, dated 2015).

How the values were obtained:
[1] = system: athymic nude mice; test: Osteoinductivity bioassay of irradiated compositions with radioprotectant, implanted into athymic nude mice; assay type: in vivo; conditions: for Passed Osteoinductivity: radioprotectant added to homogenized fascia slurry of tissue repair composition, post-gamma irradiation, implanted into athymic nude mice
Description: (§1) Multiple radioprotectants (Table 1) were investigated over a range of concentrations and the handling characteristics of the resultant products were semi-quantitatively analyzed post-gamma irradiation. Those products that passed the semi-quantitative analysis went on to be implanted into athymic nude mice as a bioassay to assess osteoinductivity.
The method to add the radioprotectant was consistent for each radioprotectant investigated. The slurry was made as described in example 1 (heating and blending cycles) and once completed, the radioprotectant of choice was added to the slurry in the form it was supplied from the manufacturer (powder or liquid).

[2] = Semi-quantitative analysis of handling characteristics post-gamma irradiation; assay type: physicochemical; conditions: putty/paste tissue repair composition; sterilizing dose of gamma irradiation; 100 mM where radioprotectant present
Description: To meet the current U.S. FDA regulatory standards and market expectations, a product must be sterile to a sterility assurance level of 1×10^−6 (SAL). […] The composition crumbled apart releasing the bone matrix.
In order to manufacture a tissue repair composition, in the form of a putty/paste, having desirable handling characteristics post-irradiation at dose designed to achieve a SAL of 1×10^−6, it was thought that the addition of one or more radioprotectants to the composition would produce a product with the desirable handling properties because the radioprotectant will act as a free radical scavenger during the irradiation sterilization process and would protect the handling characteristics of the putty/paste composition. An addition facet was that the radioprotectant must not negatively interfere with the biological activity over time (shelf life).
as §1

| Molecule | impact on osteoinductivity ([1]; 100 mM radioprotectant in composition, after sterilizing dose of gamma irradiation) | Passed Osteoinductivity [1] | handling characteristics after gamma irradiation [2] |
| --- | --- | --- | --- |
| N=C(N)NN [Aminoguanidine] | no negative impact | Yes | no negative impact |
| L-Ascorbic Acid 2-phosphate sesquimagnesium salt |  | Yes |  |
| L-Ascorbic Acid, salt |  | Yes |  |
